# Measurements as given in ChEMBL document CHEMBL3885881, “DrugMatrix”.
# Key:
# Rattus norvegicus [1] = species on record: Rattus norvegicus; type: toxicity, organism-based, Sprague-Dawley; settings: in vivo, po, 75 mg/kg, 24 h, route oral GAVAGE, dose level High, time 1 day, vehicle .5 % CMC
# Description: DrugMatrix - Regimen: Single
# Rattus norvegicus [2] = species on record: Rattus norvegicus; assay: DrugMatrix - Regimen: Daily Repeat; type: toxicity, organism-based, Sprague-Dawley; set-up: regimen Daily Repeat, gender Male, age 6-8 weeks; settings: in vivo, po, 75 mg/kg, 72 h, route oral GAVAGE, dose level High, time 3 day, vehicle .5 % CMC
smiles,measurement,setting,value
Nc1ccc(Cl)cc1 [4-CHLOROANILINE],ABSOLUTE EOSINOPHIL,Rattus norvegicus [1]; tissue Blood,269 CELLS/uL
same,ABSOLUTE LYMPHOCYTE,Rattus norvegicus [1]; tissue Blood,17566.67 CELLS/uL
same,ABSOLUTE MONOCYTE,Rattus norvegicus [1]; tissue Blood,600.33 CELLS/uL
same,ABSOLUTE SEGMENTED NEUTROPHIL,Rattus norvegicus [1]; tissue Blood,3397.33 CELLS/uL
same,BASOPHIL,Rattus norvegicus [1]; tissue Blood,0%
same,EOSINOPHIL,Rattus norvegicus [1]; tissue Blood,1.33%
same,ERYTHROCYTE COUNT,Rattus norvegicus [1]; tissue Blood,5.88 x10E6/uL
same,HEMATOCRIT,Rattus norvegicus [1]; tissue Blood,36.53%
same,HEMOGLOBIN,Rattus norvegicus [1]; tissue Blood,13.03 G/DL
same,LEUKOCYTE COUNT,Rattus norvegicus [1]; tissue Blood,21.83 x10E3/uL
same,LYMPHOCYTE,Rattus norvegicus [1]; tissue Blood,81.67%
same,MEAN CORPUSCULAR HEMOGLOBIN,Rattus norvegicus [1]; tissue Blood,22.17 pg
same,MEAN CORPUSCULAR HEMOGLOBIN CONCENTRATION,Rattus norvegicus [1]; tissue Blood,35.7 G/DL
same,MEAN CORPUSCULAR VOLUME,Rattus norvegicus [1]; tissue Blood,62.13 fL
same,MONOCYTE,Rattus norvegicus [1]; tissue Blood,2.67%
same,NEUTROPHIL,Rattus norvegicus [1]; tissue Blood,14.33%
same,NUCLEATED RED BLOOD CELLS,Rattus norvegicus [1]; tissue Blood,0 /100WBC
same,PLATELET COUNT,Rattus norvegicus [1]; tissue Blood,950.67 x10E3/uL
same,ALANINE AMINOTRANSFERASE,Rattus norvegicus [1]; tissue Plasma,53 u/L
same,ALBUMIN,Rattus norvegicus [1]; tissue Plasma,4.37 G/DL
same,ALKALINE PHOSPHATASE,Rattus norvegicus [1]; tissue Plasma,533.33 u/L
same,ASPARTATE AMINOTRANSFERASE,Rattus norvegicus [1]; tissue Plasma,101 u/L
same,BLOOD UREA NITROGEN,Rattus norvegicus [1]; tissue Plasma,13.67 mg/dL
same,CARBON DIOXIDE,Rattus norvegicus [1]; tissue Plasma,25.67 mmol/L
same,CHLORIDE,Rattus norvegicus [1]; tissue Plasma,102.33 MEQ/L
same,CHOLESTEROL,Rattus norvegicus [1]; tissue Plasma,75.33 mg/dL
same,CREATININE,Rattus norvegicus [1]; tissue Plasma,0.19 mg/dL
same,GLUCOSE,Rattus norvegicus [1]; tissue Plasma,168 mg/dL
same,LACTATE DEHYDROGENASE,Rattus norvegicus [1]; tissue Plasma,480 u/L
same,LIPASE,Rattus norvegicus [1]; tissue Plasma,9.67 u/L
same,PHOSPHORUS,Rattus norvegicus [1]; tissue Plasma,13.93 mg/dL
same,POTASSIUM,Rattus norvegicus [1]; tissue Plasma,6.69 MEQ/L
same,SODIUM,Rattus norvegicus [1]; tissue Plasma,146.3 MEQ/L
same,TOTAL BILIRUBIN,Rattus norvegicus [1]; tissue Plasma,0.23 mg/dL
same,TOTAL PROTEIN,Rattus norvegicus [1]; tissue Plasma,6.3 G/DL
same,URIC ACID,Rattus norvegicus [1]; tissue Plasma,2.2 mg/dL
same,ABSOLUTE BASOPHIL,Rattus norvegicus [2]; tissue Blood,0 CELLS/uL
same,ABSOLUTE EOSINOPHIL,Rattus norvegicus [2]; tissue Blood,340 CELLS/uL
same,ABSOLUTE LYMPHOCYTE,Rattus norvegicus [2]; tissue Blood,18564 CELLS/uL
same,ABSOLUTE MONOCYTE,Rattus norvegicus [2]; tissue Blood,396 CELLS/uL
same,ABSOLUTE SEGMENTED NEUTROPHIL,Rattus norvegicus [2]; tissue Blood,3900 CELLS/uL
same,BASOPHIL,Rattus norvegicus [2]; tissue Blood,0%
same,EOSINOPHIL,Rattus norvegicus [2]; tissue Blood,1.67%
same,ERYTHROCYTE COUNT,Rattus norvegicus [2]; tissue Blood,5.42 x10E6/uL
same,HEMATOCRIT,Rattus norvegicus [2]; tissue Blood,35.1%
same,HEMOGLOBIN,Rattus norvegicus [2]; tissue Blood,13.57 G/DL
same,LEUKOCYTE COUNT,Rattus norvegicus [2]; tissue Blood,27.87 x10E3/uL
same,LYMPHOCYTE,Rattus norvegicus [2]; tissue Blood,79.33%
same,MEAN CORPUSCULAR HEMOGLOBIN,Rattus norvegicus [2]; tissue Blood,25.13 pg
same,MEAN CORPUSCULAR HEMOGLOBIN CONCENTRATION,Rattus norvegicus [2]; tissue Blood,38.77 G/DL
same,MEAN CORPUSCULAR VOLUME,Rattus norvegicus [2]; tissue Blood,64.77 fL
same,MONOCYTE,Rattus norvegicus [2]; tissue Blood,1.67%
same,NEUTROPHIL,Rattus norvegicus [2]; tissue Blood,17.33%
same,NUCLEATED RED BLOOD CELLS,Rattus norvegicus [2]; tissue Blood,1 /100WBC
same,PLATELET COUNT,Rattus norvegicus [2]; tissue Blood,1129 x10E3/uL
same,ALANINE AMINOTRANSFERASE,Rattus norvegicus [2]; tissue Plasma,48.33 u/L
same,ALBUMIN,Rattus norvegicus [2]; tissue Plasma,4.23 G/DL
same,ALKALINE PHOSPHATASE,Rattus norvegicus [2]; tissue Plasma,297 u/L
same,ASPARTATE AMINOTRANSFERASE,Rattus norvegicus [2]; tissue Plasma,88.67 u/L
same,BLOOD UREA NITROGEN,Rattus norvegicus [2]; tissue Plasma,14.67 mg/dL
same,CARBON DIOXIDE,Rattus norvegicus [2]; tissue Plasma,26.67 mmol/L
same,CHLORIDE,Rattus norvegicus [2]; tissue Plasma,104 MEQ/L
same,CHOLESTEROL,Rattus norvegicus [2]; tissue Plasma,52.67 mg/dL
same,CREATININE,Rattus norvegicus [2]; tissue Plasma,0.27 mg/dL
same,GLUCOSE,Rattus norvegicus [2]; tissue Plasma,226.33 mg/dL
same,LACTATE DEHYDROGENASE,Rattus norvegicus [2]; tissue Plasma,200 u/L
same,LIPASE,Rattus norvegicus [2]; tissue Plasma,9.67 u/L
same,PHOSPHORUS,Rattus norvegicus [2]; tissue Plasma,13.43 mg/dL
same,POTASSIUM,Rattus norvegicus [2]; tissue Plasma,6.55 MEQ/L
same,SODIUM,Rattus norvegicus [2]; tissue Plasma,147 MEQ/L
same,TOTAL BILIRUBIN,Rattus norvegicus [2]; tissue Plasma,0.23 mg/dL
same,TOTAL PROTEIN,Rattus norvegicus [2]; tissue Plasma,6.3 G/DL
same,URIC ACID,Rattus norvegicus [2]; tissue Plasma,2.03 mg/dL
